Literature values in patent publication JP2021073187A, “即効型インスリン組成物” (Eli Lilly and Co, priority 2014, dated 2021).

インスリンリスプロ: drug substance of HUMALOG, CAS 133107-64-9; A chain SEQ ID 1, B chain SEQ ID 3 [28B−L−リジン−29B−L−プロリン ヒトインスリン]
Potency relative to human insulin (on a molar basis): 等しい効力
Effect after subcutaneous injection relative to injected soluble human insulin (subcutaneous injection): 迅速で短い持続時間
